One experiment concerns the target hOx2R (Homo sapiens (Human), UniProt O43614). The experiment in a line: Calcium accumulation in cells (FLIPR), hOx2R. In kind it is cell-based. Conditions: for Ki: inhibition of orexin A induced calcium accumulation, Cheng and Prusoff correction; for inhibition at 10 µM: measured at a concentration of 10 μM of compound. The method, then: (§1) Calcium Accumulation in Cells (FLIPR):
(§2) Cells expressing human orexin 1 or human orexin 2 receptors, were seeded at 8,000 cells/well in 384 well black-walled clear bottom, poly-D-lysine coated plates. After 24 h, the medium was removed and cells were washed once with phosphate buffered saline and serum-deprived overnight in assay buffer (130 mM NaCl, 5.4 mM KCl, 1.8 mM CaCl2, 0.8 mM MgSO4, 0.9 mM NaH2PO4, 25 mM glucose, 20 mM HEPES, pH 7.4) containing bovine serum albumin (1% w/v).
(§3) On the day of the experiment, the cells seeded in black plates were treated with assay buffer containing the Ca^2+ sensitive fluorescent dye Fluo-4-AM (2 μM), and probenecid (0.1 mM). After 1 h plates were washed twice with, and resuspended in, assay buffer containing probenecid (0.1 mM) using a multi plate washer. […] Fluorescence measurements were then continued every 1 S for 120 S followed by every 4 S for 240 S.
(§4) The measurements were typically made in two sequences:
(§5) Compounds of formula I were tested usually in a concentration range from 10^−9 M to 10^−5 M.
(§6) In the second round, performed one hour later (to allow for equilibration), Orexin A was tested either in the absence (calibration curves, Orexin A agonist controls) or in the presence of compounds of formula I to determine antagonism.

For the next experiment, the target named is hOx1R (Homo sapiens (Human), UniProt O43613). As to the kind of experiment: Calcium accumulation in cells (FLIPR), hOx1R. Type of experiment: cell-based. Conditions: for inhibition at 10 µM: measured at a concentration of 10 μM of compound; for Ki: inhibition of orexin A induced calcium accumulation, Cheng and Prusoff correction. The method, then: as §1, §2, §3, §4, §5, §6
Chain of hOx1R (O43613 whole entry): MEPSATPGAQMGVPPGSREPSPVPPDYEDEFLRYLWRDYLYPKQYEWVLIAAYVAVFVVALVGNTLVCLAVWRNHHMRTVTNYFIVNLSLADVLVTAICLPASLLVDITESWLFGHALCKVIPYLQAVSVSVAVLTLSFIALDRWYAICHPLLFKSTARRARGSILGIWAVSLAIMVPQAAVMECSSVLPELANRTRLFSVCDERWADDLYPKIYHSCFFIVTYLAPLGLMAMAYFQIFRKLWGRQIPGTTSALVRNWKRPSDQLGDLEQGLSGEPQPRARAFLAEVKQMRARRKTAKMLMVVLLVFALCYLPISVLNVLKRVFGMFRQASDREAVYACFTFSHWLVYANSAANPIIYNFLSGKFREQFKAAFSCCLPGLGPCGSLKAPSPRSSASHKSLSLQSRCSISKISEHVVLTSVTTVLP

Chain of hOx2R (O43614 whole entry): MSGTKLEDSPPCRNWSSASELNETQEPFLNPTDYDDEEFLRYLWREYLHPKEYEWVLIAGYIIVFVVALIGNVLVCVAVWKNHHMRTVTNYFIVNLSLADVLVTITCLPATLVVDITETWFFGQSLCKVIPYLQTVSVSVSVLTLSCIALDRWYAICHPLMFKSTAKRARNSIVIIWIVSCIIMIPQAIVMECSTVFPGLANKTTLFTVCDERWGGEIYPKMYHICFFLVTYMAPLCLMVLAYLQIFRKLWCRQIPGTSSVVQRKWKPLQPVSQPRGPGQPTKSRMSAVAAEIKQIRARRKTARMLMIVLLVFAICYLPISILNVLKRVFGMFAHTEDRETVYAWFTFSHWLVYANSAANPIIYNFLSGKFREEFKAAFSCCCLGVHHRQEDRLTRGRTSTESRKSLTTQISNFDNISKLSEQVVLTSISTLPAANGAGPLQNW

As to `O=C1N(Cc2c[nH]c3ccccc23)CCCC12CCN(c1cc(-n3ccnc3)ncn1)CC2` [Example 158, 9-(6-(1H-imidazo-1-yl)pyrimidin-4-yl)-2-((1H-indol-3-yl)methyl)-2,9-diazaspiro[5.5]undecan-1-one], at hOx2R, the inhibitory constant (Ki) – broadly, the equilibrium dissociation constant of an inhibitor or competing ligand from its target – was determined as 545 nM. The inhibition – broadly, the relative decrease from the control value, in per cent – at 10 µM at hOx1R came to 21%.

Turning to `O=C1N(Cc2ccccn2)CCCC12CCN(c1cnc3ccccc3n1)CC2` [Example 62, 2-(pyridin-2-ylmethyl)-9-(quinoxalin-2-yl)-2,9-diazaspiro[5.5]undecan-1-one], the Ki on hOx2R came out at 833 nM. At hOx1R, the inhibition at 10 µM turned out to be 29%.

For `Cc1cccc(CN2CCCC3(CCN(c4cnc5ccccc5n4)CC3)C2=O)n1` [Example 97, 2-((6-methylpyridin-2-yl)methyl)-9-(quinoxalin-2-yl)-2,9-diazaspiro[5.5]undecan-1-one], the inhibition at 10 µM on hOx2R is 33%; at hOx1R it was 14%.

Consider `O=C1N(Cc2c[nH]c3ccccc23)CCCC12CCN(c1nccc(-c3ccncc3)n1)CC2` [Example 166, 2-((1H-indol-3-yl)methyl)-9-(4-(pyridin-4-yl)pyrimidin-2-yl)-2,9-diazaspiro[5.5]undecan-1-one], for which the inhibitory constant (Ki) came out at 156 nM at hOx2R and 1160 nM on hOx1R.

For `Cn1ncc2cccc(CN3CCCC4(CCN(c5cnc6ccccc6n5)CC4)C3=O)c21` [Example 107, 2-((1-methyl-1H-indazol-7-yl)methyl)-9-(quinoxalin-2-yl)-2,9-diazaspiro[5.5]undecan-1-one], the Ki at hOx2R amounted to 115 nM; at hOx1R, 728 nM.

As for `O=C1N(Cc2nnnn2-c2ccccc2)CCCC12CCN(c1cnc3ccccc3n1)CC2` [Example 122, 2-((1-phenyl-1H-tetrazol-5-yl)methyl)-9-(quinoxalin-2-yl)-2,9-diazaspiro[5.5]undecan-1-one], the Ki on hOx2R was determined as 725 nM. Besides, on hOx1R, the inhibition at 10 µM was 31%.

Turning to `O=C1CCCC2(CCN(c3nnc(-c4ccccc4)o3)CC2)N1Cc1cccc2[nH]ccc12` [Example 137, 1-((1H-indol-4-yl)methyl)-9-(5-phenyl-1,3,4-oxadiazol-2-yl)-1,9-diazaspiro[5.5]undecan-2-one], the inhibitory constant (Ki) at hOx2R stood at 656 nM; at hOx1R, 509 nM.

With `Cc1noc(C)c1CN1CCCC2(CCN(c3cnc4ccccc4n3)CC2)C1=O` [Example 37, 2-((3,5-dimethylisoxazol-4-yl)methyl)-9-(quinoxalin-2-yl)-2,9-diazaspiro[5.5]undecan-1-one], the results for the inhibition at 10 µM at hOx2R and on hOx1R were 22% and 8%, respectively.

For the molecule `O=C1N(Cc2cccc(N3CCCC3)n2)CCCC12CCN(c1cnc3ccccc3n1)CC2` [Example 103, 2-((6-(pyrrolidln-1-yl)pyridin-2-yl)methyl)-9-(quinoxalin-2-yl)-2,9-diazaspiro[5.5]undecan-1-one], the figures for the inhibition constant (Ki) on hOx2R and on hOx1R were 1190 nM and 2490 nM, respectively.

Take `Cc1nc2ccccn2c1CN1CCCC2(CCN(c3cnc4ccccc4n3)CC2)C1=O` [Example 71, 2-((2-methylimidazo[1,2-a]pyridin-3-yl)methyl)-9-(quinoxalin-2-yl)-2,9-diazaspiro[5.5]undecan-1-one]: the Ki on hOx2R was 466 nM; at hOx1R, 2160 nM.

Consider `O=C1N(Cc2cccc3c2CCN3)CCCC12CCN(c1cnc3ccccc3n1)CC2` [Example 126, 2-(indolin-4-ylmethyl)-9-(quinoxalin-2-yl)-2,9-diazaspiro[5.5]undecan-1-one], for which the inhibition constant Ki on hOx2R was 267 nM; on hOx1R, 1250 nM.

On to `O=C1N(Cc2nnc3ccccn23)CCCC12CCN(c1cnc3ccccc3n1)CC2` [Example 75, 2-([1,2,4]triazolo[4,3-a]pyridin-3-ylmethyl)-9-(quinoxalin-2-yl)-2,9-diazaspiro[5.5]undecan-1-one], for which the values for the inhibition at 10 µM at hOx2R and at hOx1R were 35% and 22%, respectively.

Consider `Cc1nc(-c2ccccc2)oc1CN1CCCC2(CCN(c3cnc4ccccc4n3)CC2)C1=O` [Example 119, 2-((4-methyl-2-phenyloxazol-5-yl)methyl)-9-(quinoxalin-2-yl)-2,9-diazaspiro[5.5]undecan-1-one], for which the Ki at hOx2R was 291 nM; on hOx1R, 1900 nM.

For `N#Cc1ccc(CN2CCCC3(CCN(c4cnc5ccccc5n4)CC3)C2=O)cn1` [Example 100, 5-((1-oxo-9-(quinoxalin-2-yl)-2,9-diazaspiro[5.5]undecan-2-yl)methyl)picolinonitrile], the inhibition at 10 µM on hOx2R stood at 13%; at hOx1R, 29%.

Regarding `Cc1nnc(N2CCC3(CCCN(Cc4c[nH]c5ccccc45)C3=O)CC2)c2ccccc12` [Example 157, 2-((1H-indol-3-yl)methyl)-9-(4-methylphthalazin-1-yl)-2,9-diazaspiro[5.5]undecan-1-one], the Ki at hOx2R was 320 nM; on hOx1R, 1700 nM.

With `O=C1CCCC2(CCN(c3cnc4ccccc4n3)CC2)N1Cc1ccccc1` [Example 134, 1-benzyl-9-(quinoxalin-2-yl)-1,9-diazaspiro[5.5]undecan-2-one], the Ki amounted to 161 nM on hOx2R and 1440 nM at hOx1R.

For the molecule `COc1ccc(-c2nnc(CN3CCCC4(CCN(c5cnc6ccccc6n5)CC4)C3=O)o2)cc1` [Example 31, 2-((5-(4-methoxyphenyl)-1,3,4-oxadiazol-2-yl)methyl)-9-(quinoxalin-2-yl)-2,9-diazaspiro[5.5]undecan-1-one], the Ki on hOx2R stood at 1180 nM; at hOx1R it was 3690 nM.

As to `O=C1N(Cc2ccnc(N3CCOCC3)c2)CCCC12CCN(c1cnc3ccccc3n1)CC2` [Example 56, 2-((2-morpholinopyridin-4-yl)methyl)-9-(quinoxalin-2-yl)-2,9-diazaspiro[5.5]undecan-1-one], the Ki is 483 nM at hOx2R and 2040 nM on hOx1R.

`CN1CCOc2c(CN3CCCC4(CCN(c5cnc6ccccc6n5)CC4)C3=O)cccc21` [Example 144, 2-((4-methyl-3,4-dihydro-2H-benzo[b][1,4]oxazin-8-yl)methyl)-9-(quinoxalin-2-yl)-2,9-diazaspiro[5.5]undecan-1-one]: the Ki on hOx2R worked out at 596 nM; at hOx1R, 3250 nM.

For the molecule `O=C1N(Cc2ccc(-c3ncccn3)cc2)CCCC12CCN(c1cnc3ccccc3n1)CC2` [Example 101, 2-(4-(pyrimidin-2-yl)benzyl)-9-(quinoxalin-2-yl)-2,9-diazaspiro[5.5]undecan-1-one], the values for the Ki on hOx2R and on hOx1R were 1380 nM and 2790 nM, respectively.

Consider `Cc1ccc(C)c(CN2CCCC3(CCN(c4cnc5ccccc5n4)CC3)C2=O)c1` [Example 20, 2-(2,5-dimethylbenzyl)-9-(quinoxalin-2-yl)-2,9-diazaspiro[5.5]undecan-1-one], for which the figures for the inhibition constant Ki on hOx2R and on hOx1R were 205 nM and 945 nM, respectively.

Take `O=C1N(Cc2cccc(N3CCOCC3)c2)CCCC12CCN(c1cnc3ccccc3n1)CC2` [Example 59, 2-(3-morpholinobenzyl)-9-(quinoxalin-2-yl)-2,9-diazaspiro[5.5]undecan-1-one]: the inhibition at 10 µM on hOx2R worked out at 31%; at hOx1R, 12%.

For `O=C1CCCC2(CCN(c3nc4ccc(Cl)cc4o3)CC2)N1Cc1cccc2[nH]ccc12` [Example 139, 1-((1H-indol-4-yl)methyl)-9-(6-chlorobenzo[d]oxazol-2-yl)-1,9-diazaspiro[5.5]undecan-2-one], the inhibitory constant (Ki) on hOx2R was found to be 105 nM; on hOx1R it was 541 nM.

In the case of `Cc1oc(-c2cscn2)nc1CN1CCCC2(CCN(c3cnc4ccccc4n3)CC2)C1=O` [Example 114, 2-((5-methyl-2-(thiazol-4-yl)oxazol-4-yl)methyl)-9-(quinoxalin-2-yl)-2,9-diazaspiro[5.5]undecan-1-one], the values for the inhibitory constant (Ki) on hOx2R and on hOx1R were 831 nM and 3790 nM, respectively.

Take `Cc1cccc(CN2CCCC3(CCN(c4cnc5ccccc5n4)CC3)C2=O)c1C` [Example 17, 2-(2,3-dimethylbenzyl)-9-(quinoxalin-2-yl)-2,9-diazaspiro[5.5]undecan-1-one]: the Ki at hOx2R was determined as 247 nM; at hOx1R, 1720 nM.

As for `O=C1N(Cc2cccc(Cl)c2)CCCC12CCN(c1nc3ccccc3[nH]1)CC2` [Example 28, 9-(1H-benzo[d]imidazol-2-yl)-2-(3-chlorobenzyl)-2,9-diazaspiro[5.5]undecan-1-one], the Ki at hOx2R stood at 160 nM. The inhibition at 10 µM on hOx1R was determined as 33%.

As for `O=C1N(Cc2cncn2Cc2ccccc2)CCCC12CCN(c1cnc3ccccc3n1)CC2` [Example 118, 2-((1-benzyl-1H-imidazol-5-yl)methyl)-9-(quinoxalin-2-yl)-2,9-diazaspiro[5.5]undecan-1-one], the figures for the inhibition constant Ki at hOx2R and on hOx1R were 197 nM and 1840 nM, respectively.

Regarding `CC(c1c[nH]c2ccccc12)N1CCCC2(CCN(c3cnc4ccccc4n3)CC2)C1=O` (stereo not shown) [Example 74, 2-(1-(1H-indol-3-yl)ethyl)-9-(quinoxalin-2-yl)-2,9-diazaspiro[5.5]undecan-1-one], the results for the Ki at hOx2R and on hOx1R were 185 nM and 675 nM, respectively.

Consider `O=C1N(Cc2ccccc2-c2ncccn2)CCCC12CCN(c1cnc3ccccc3n1)CC2` [Example 151, 2-(2-(pyrimidin-2-yl)benzyl)-9-(quinoxalin-2-yl)-2,9-diazaspiro[5.5]undecan-1-one], for which the inhibition constant Ki at hOx2R was 675 nM. In addition, the inhibition at 10 µM at hOx1R amounted to 14%.

The values above are taken from patent US8530648B2, “Diaza-spiro[5.5]undecanes” (Novartis AG, priority 2009, dated 2013).
